Measurements reported in PMC5792488, “Structural basis of the molecular ruler mechanism of a bacterial glycosyltransferase” (Nature Communications, 2018).

Legend:
PglH [1] = target: T1, PglH (Campylobacter jejuni, UniProt Q0P9C5); test: ([…] Å); IC50 with purified PglH; assay type: biochemical
T1 construct: PglH with C-terminal His10 tag

PglH [2] = target: T1, PglH; test: crystal structure of ternary complex with synthetic LLO ([…] Å); IC50 with purified PglH; assay type: biochemical

T1 sequence (Q0P9C5 whole entry): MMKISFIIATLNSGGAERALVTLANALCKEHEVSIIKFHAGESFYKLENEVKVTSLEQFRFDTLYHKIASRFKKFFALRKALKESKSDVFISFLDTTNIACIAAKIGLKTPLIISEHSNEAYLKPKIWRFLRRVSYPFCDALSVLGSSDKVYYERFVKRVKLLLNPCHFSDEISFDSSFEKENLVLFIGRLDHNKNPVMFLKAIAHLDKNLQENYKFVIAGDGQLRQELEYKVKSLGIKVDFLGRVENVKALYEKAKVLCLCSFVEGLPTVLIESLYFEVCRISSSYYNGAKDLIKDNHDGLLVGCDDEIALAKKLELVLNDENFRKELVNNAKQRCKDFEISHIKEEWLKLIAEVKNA

Compound: CC(=O)N[C@@H]1[C@@H](O)[C@@H](O)[C@@H](CO)O[C@@H]1CP(=O)(O)OP(=O)(O)OC[C@@H]1O[C@@H](n2ccc(=O)[nH]c2=O)[C@H](O)[C@@H]1O [UDP-CH2-GalNAc]
- IC50 (PglH [1]): 303 ± 24 µM

Compound: O=c1ccn([C@@H]2O[C@H](COP(=O)(O)OP(=O)(O)O)[C@@H](O)[C@H]2O)c(=O)[nH]1 [UDP]
- IC50 (PglH [2]): 1020 ± 87 µM
